Consider one compound from patent US20020142347A1, “Biosensor” (BIOSENSOR ApS, priority 2000, published 2002).

For test [1], the target named is T1, FACI-24 (Bos taurus, UniProt P07107, M25C).
T1 construct: made in house; host or cells: E. coli BL21(DE3)pLysS, pET3a vector
T1 sequence (P07107 2-87 M25C): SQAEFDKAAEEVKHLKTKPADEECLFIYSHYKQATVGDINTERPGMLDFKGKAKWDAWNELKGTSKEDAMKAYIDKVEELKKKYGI
The experiment in a line: Fluorescence titration equilibrium binding analysis of CoA and acyl-CoA esters to FACI-24. The arrangement: species or system bovine. Particulars: FACI-24 (1.5 μM) titrated with increasing CoA and acyl-CoA concentration; fitted binding curves, emission 460 nm; read-out: Kd (nM) ± S.E. On the procedure: Development of a mathematical expression describing the relationship between acyl-CoA concentration and FACI-24 fluorescence was performed essentially as by Richieri et al 1992, J Biol Chem, 267:23495-23501. However, where ligand binding to ADIFAB induces both a fluorescence intensity increase around 505 nm and a fluorescence intensity decrease around 432 nm, ligand binding to FACI-24 only causes an increase in fluorescence around 460 nm.
Derivatisation of an expression for the fluorescence value as a function of the acyl-coA concentration was done using the Scatchard equation as a starting point: [formula]
which has been used to fit the titration data.
The curves represent the best fit analysis from two independent experiment calculated and normalized as described above. The FACI-24 binding affinity increases dramatically when the acyl-chain length increases from C8 to C10 and C12, a smaller but significant drop in Kd is seen by increasing chain length from C12 to C14. C14 to C18 saturated acyl-CoA esters and C18:1-CoA binds with similar and very high affinities to FACI-24. In >0.1 M salt, FACI-24 binds acyl-CoAs with higher affinity and similar specificity as native unmodified bovine ACBP. The Kd for binding of C12-CoA and C16-CoA to native ACBP is 40 and 2.0 nM, respectively (Fulcery et al Biochemical, 1997, 325:423-428; Færgeman et al 1996, Biochemistry, 35:14118-14126). FACI-24 is highly specific for binding long-chain acyl-CoA esters.
(§1) Titration of FACI with acyl-CoAs was done using a SPEX FLOUROLOG (Industries Inc, Edison N.J., USA) with excitation at 387 nm and emission at 460 nm, with both excitation and emission slits set to 4.5 nm. FACI (0.5-4.5 uM, as indicated) was dissolved in 1.5 ml binding buffer (10 mM HEPES 150 mM NaCl, 5 mM KCl, 1 mM Na2HPO4, pH 7.4) and titrated with a 10 μM acyl-CoA dissolved in binding buffer, with or without FACI added, as indicated. Fluorescence emission values (counts per second) measured without FACI added to the ligand stock solution were corrected for titrand dilution.
Up to four parameters were fitted in this way, these were B, representing the point of saturation on the X axis, H, representing the maximum fluorescence, i.e. the fluorescence at saturating concentration of acyl-CoA, L, the minimum fluorescence value, i.e. the fluorescence of FACI-24 alone in buffer, and K, the Kd value lor the acyl-CoA in question. Initial estimates for the fittable parameters were typically: B=1, H=maximum fluorescence value measured, L=minimum fluorescence value measured (at acyl-CoA-concentration=0), and K as judged from the raw data, typically from 0.0001 uM to 0.1 uM for acyl-CoA longer than C10:0-CoA.
For each acyl-CoA at least two titrations and fittings were performed. To consider two or more titrations of the same acyl-CoA together and obtain a Kd value using all these titrations, both axes of the raw data were standardised using the fitted values of B, H and L in this way:
X axis standard=(raw X axis values)/Bfitted
Y axis standard=[(raw Y axis values)−Lfitted]/[Hfitted−Lfitted]
In this way all Y axis values should come to lie between 0 and 1 and the X axis value should be 1 at the point of saturation (FACI-24:acyl-CoA 1:1). Such adjusted data were pooled and fitted using DataFit. Typically, both H and B fitted to values close to 1 and L fitted to values close to 0. K was typically fitted to values somewhere between the two values obtained for the raw data.
This could be overcome by removing B from the fittable parameters list and instead setting it to a constant value of 1 and fitting again. This was typically done for both the raw and the standardised data.

Test [2] deals with T1, FACI-24. The experiment in a line: Fluorescence emission change of FACI-24 on titration with CoA and acyl-CoA esters. The format is binding, bovine. Particulars: emission maximum without ligand 510 nm; excitation 400 nm. As for the experimental part: (§2) Quantitative determination of binding affinities (KD) were performed by isothermal titration micro calorimetry as previously described (Faergeman et. al., 1996; Biochemistry 35, 14118-14126). Qualitative evaluation of relative binding affinities were determined by isoelectrical focusing using the Pharmacia Fast Gel system according to the prescriptions given by the manufacture. Fluorescence emission changes induced by acyl-CoA binding to badan modified protein were determined as follows: 5 μl portions of acyl-CoAs were added from stock solutions disolved in binding buffer, (10 mM Hepes, 150 mM NaCL, 1 mM NaHPO4, pH 7.4) containing 3.4 μM Badan derivatized protein to a 1 ml 3.4 μM solution of the Badan derivatized ACBP in the same buffer. The fluorescence emission was measured on a SPEX FLOUROLOG (Industries Inc, Edison N.J., USA) with excitation at 400 nm and emission scan from 400 nm to 550 nm. The concentration of acyl-CoA in the aqueous phase was determined from the fluorescence emission sensitivities at 495 and 470 nm repectively essentially by the method described by (Grynkiewickz et. al.,1985, J. Biol. Chem. 260, 3440-3450) according to which:
(§3) Fluorescence titration emission spectra from 415 nm to 550 nm (excitation at 400 nm) were performed for CoA, C4:0-, C8:0-, C12:0-, C16:0-, and C20:0-CoA with all four mutated and badan modified proteins.
The emission maximum of FACI-24 without ligand added was 510 nm and titration with CoA, C4:0-, C8:0-, C12:0-, […], C16:0- and C20:0-CoA caused 0, 16, 34, 42, 46 and 46 nm downshift in emission maximum, respectively (results not shown). C16:0-CoA induced a 5,5 fold increase in emission at 464 nm (FIG. 10).
as §1

For test [3], the target named is T2, FACI53 (Bos taurus, UniProt P07107, A54C).
T2 construct: badan (6-bromoacetyl-2-dimethylaminonaphthalene) fluorophore on the introduced Cys-53; made in house; host or cells: E. coli BL21(DE3)pLysS, pET3a vector
T2 sequence (P07107 2-87 A54C): T1 sequence (P07107 2-87 M25C) with C24M, A53C
The experiment in a line: Fluorescence emission change of FACI-53 on titration with CoA and acyl-CoA esters. It counts as binding, bovine. On the procedure:
as §2, §3
Titration of FACI-53 dissolved in binding buffer with the above mentioned acyl-CoA esters produced a smooth downward shift in fluorescence emission maximum from 525 nm when no ligand was present to 508, 503, 490, 492, 496 and 514 with increasing concentrations of CoA, C4:0-, C8:0-, C12:0-, C16:0- and C20:0-CoA respectively.

Test [4] addresses T3, M24C-badan ACBP (Bos taurus, UniProt P07107, M25C).
T3 construct: made in house; host or cells: E. coli BL21(DE3)pLysS, pET3a vector
T3 sequence (P07107 2-87 M25C): T1 sequence (P07107 2-87 M25C)
Put plainly: Isothermal titration micro calorimetry of acyl-CoA binding to M24C-badan ACBP. Further details: species or system bovine. Particulars: isotermal titration micro calorimetry. On the procedure: as §2, with “which: […]” for “which:”
Background: In ITC the heat of successive injections is recorded.

Test [5] deals with T4, native bovine ACBP (Bos taurus, UniProt P07107).
T4 sequence (P07107 1-87): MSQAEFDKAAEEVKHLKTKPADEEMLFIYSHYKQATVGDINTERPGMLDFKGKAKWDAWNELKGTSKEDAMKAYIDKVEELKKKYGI
Particulars: isothermal titration microcalorimetry, >0.1 M salt; literature; read-out: KD for binding to native bovine ACBP; cited from earlier work.

Positions count from the first letter of the chain named.

In the case of `CCCCCCCCCCCC(=O)SCCNC(=O)CCNC(=O)[C@H](O)C(C)(C)COP(=O)(O)OP(=O)(O)OC[C@H]1O[C@@H](n2cnc3c(N)ncnc32)[C@H](O)[C@@H]1OP(=O)(O)O` [C12:0-CoA, dodecanoyl-CoA], the Kd is 10.2 ± 0.81 nM in test [1], 40 nM in test [4] and 40 nM in test [5]. Further, the “Downshift in emission maximum of FACI-24” value in test [2] is reported as 42 nm. Further, the “Magnitude of emission of FACI-53, fold increase” value in test [3] is 2.7 fold. The “Fluorescence emission maximum of FACI-53 with ligand” value in test [3] (525 nm when no ligand present, excitation 400 nm) was determined as 492 nm. In test [3] (emission at 495 nm), the “Relative emission of FACI-53 at 495 nm, fold increase” value is 4.7 fold.

One may read the Kd as the equilibrium constant for the complex coming apart.
